For experiment [1], the target named is T1, Adenosine receptor A1 (Homo sapiens) (UniProt P30542).
T1 sequence (whole entry): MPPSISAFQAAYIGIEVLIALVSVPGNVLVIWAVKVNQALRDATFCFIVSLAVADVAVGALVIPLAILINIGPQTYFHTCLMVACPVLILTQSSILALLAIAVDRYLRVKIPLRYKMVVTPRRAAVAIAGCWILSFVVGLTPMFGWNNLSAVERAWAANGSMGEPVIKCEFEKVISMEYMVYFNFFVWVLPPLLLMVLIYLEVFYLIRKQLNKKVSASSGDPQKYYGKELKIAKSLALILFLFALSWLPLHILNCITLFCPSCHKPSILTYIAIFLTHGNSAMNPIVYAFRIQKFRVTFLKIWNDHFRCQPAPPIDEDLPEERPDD
The experiment is described as follows: Inverse agonist activity at Homo sapiens (human) Adenosine A1 receptor expressed in CHO cells assessed as increase in cAMP level at 0.01 uM after 6 min by radioimmunoassay. The format is functional, cell-based. Background: Changes in cAMP serve as a functional read-out for many G protein-coupled receptors.

Experiment [2] addresses T1, Adenosine receptor A1 (Homo sapiens). The experiment is described as follows: Antagonist activity at Homo sapiens (human) Adenosine A1 receptor expressed in CHO cells assessed as cAMP level at 0.01 to 10 uM after 6 min by radioimmunoassay. In kind it is functional, cell-based.
The target in experiment [3] is T2, Adenosine receptor A1 (Rattus norvegicus) (UniProt P25099).
T2 sequence (whole entry): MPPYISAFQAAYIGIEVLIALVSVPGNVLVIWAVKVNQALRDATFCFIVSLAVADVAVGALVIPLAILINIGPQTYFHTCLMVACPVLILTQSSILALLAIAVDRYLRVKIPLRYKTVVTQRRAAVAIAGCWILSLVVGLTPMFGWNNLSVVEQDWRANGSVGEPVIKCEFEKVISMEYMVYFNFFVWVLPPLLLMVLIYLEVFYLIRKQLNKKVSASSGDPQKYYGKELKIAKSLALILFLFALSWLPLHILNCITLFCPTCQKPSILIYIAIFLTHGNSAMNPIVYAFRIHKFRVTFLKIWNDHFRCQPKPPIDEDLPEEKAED
The experiment is described as follows: Displacement of [3H]CCPA from A1 receptor in Rattus norvegicus (rat) brain membrane at 10 uM after 90 min. For orientation: In a radioligand displacement assay an active substance lowers the binding of a labelled ligand.

Experiment [4] addresses T1, Adenosine receptor A1 (Homo sapiens). The experiment is described as follows: Allosteric modulation of Homo sapiens (human) Adenosine A1 receptor expressed in CHO cells assessed as reduction of cAMP level at 10 uM after 6 min by radioimmunoassay. Details: scale not given: the % may be the effect or the level left. The format is functional, cell-based.
For experiment [5] the target is unchanged. The experiment is described as follows: Allosteric modulation of Homo sapiens (human) Adenosine A1 receptor expressed in CHO cells assessed as reduction of cAMP level at 0.01 uM after 6 min by radioimmunoassay. The format is functional, cell-based. Details: scale not given: the % may be the effect or the level left.
Experiment [6] shares this target. The experiment is described as follows: Allosteric modulation of Homo sapiens (human) Adenosine A1 receptor expressed in CHO cells assessed as reduction of cAMP level at 0.1 uM after 6 min by radioimmunoassay. The format is functional, cell-based. Details: scale not given: the % may be the effect or the level left.
Experiment [7] shares this target. The experiment is described as follows: Displacement of [3H]CCPA from A1 receptor in Homo sapiens (human) brain membrane at 10 uM after 90 min.
Experiment [8] shares this target. The experiment is described as follows: Displacement of [3H]CCPA from Homo sapiens (human) A1 receptor expressed in CHO cells at 10 uM after 90 min. In kind it is cell-based.
The target is the same in experiment [9]. The experiment is described as follows: Allosteric modulation of Homo sapiens (human) Adenosine A1 receptor expressed in CHO cells assessed as reduction of cAMP level at 1 uM after 6 min by radioimmunoassay. The format is functional, cell-based. Details: scale not given: the % may be the effect or the level left.
For experiment [10] the target is unchanged. The experiment is described as follows: Inverse agonist activity at Homo sapiens (human) Adenosine A1 receptor expressed in CHO cells assessed as increase in cAMP level at 0.1 uM after 6 min by radioimmunoassay. In kind it is functional, cell-based.
The target is the same in experiment [11]. The experiment is described as follows: Inverse agonist activity at Homo sapiens (human) Adenosine A1 receptor expressed in CHO cells assessed as increase in cAMP level at 1 uM after 6 min by radioimmunoassay. In kind it is functional, cell-based.
Experiment [12] shares this target. The experiment is described as follows: Allosteric enhancer activity at Homo sapiens (human) Adenosine A1 receptor expressed in CHO cells assessed as […] in cAMP level at 10 uM after 6 min by radioimmunoassay. In kind it is functional, cell-based.
For experiment [13] the target is unchanged. The experiment is described as follows: Inverse agonist activity at Homo sapiens (human) Adenosine A1 receptor expressed in CHO cells assessed as increase in cAMP level at 10 uM after 6 min by radioimmunoassay. The format is functional, cell-based.

Each structure is given as a SMILES string. Active and inactive are the calls of the source. The rule behind the calls is not given here.

For `Nc1sc2c(c1C(=O)c1ccc(Cl)cc1)CCC(c1ccccc1)C2` (stereo unspecified), the outcome in [1] and in experiment [2] was Active. In addition, the Activity in experiment [3] was 33%; in [4] it was -7%; in [5], 20%; in experiment [6] it was -1%; in experiment [7], 29%; in experiment [8], 65%. The Activity in experiment [9] was -11%. In experiment [8], this compound gave a Bmax of 53%.

Take `Nc1sc2c(c1C(=O)c1ccc(Cl)cc1)CCS2`: the outcome in [10], in experiment [11] and in [12] was Active. In addition, the Activity in experiment [4] was -35%; in experiment [5] it was -1%; in [6] it was 11%; in [9], 1%.

For `Nc1sc2c(c1C(=O)c1ccc(Cl)cc1)CCSC2`, the result in experiment [1], in experiment [2] and in [11] was Active. The Activity in experiment [4] was -0.3%; in experiment [5] it was 15%; in [6], -10%; in experiment [9] it was 16%.

Take `COc1ccc(C2SCc3c(sc(N)c3C(=O)c3ccc(Cl)cc3)S2)cc1` (stereo unspecified): the outcome in experiment [1] and in [2] was Active. For the same compound, the Activity in experiment [4] was -5%; in [5] it was 4%; in experiment [6], -13%; in [9], -17%.

With `Nc1sc2c(c1C(=O)c1ccc(Cl)cc1)CCC1(C2)OCCO1`, the outcome in [13], in experiment [2] and in [11] was Active. The Activity in experiment [4] was 28%; in experiment [5], -17%; in experiment [6], -14%; in [9], 3%.

Consider `CS(=O)(=O)OC1CCc2c(sc(N)c2C(=O)c2ccc(Cl)cc2)C1` (stereo unspecified), for which the outcome in [13], in experiment [1], in experiment [2] and in experiment [11] was Active. Also, the Activity in experiment [4] was 46%; in [5], 11%; in experiment [6], -1%; in [9], 15%.

`Nc1sc2c(c1C(=O)c1ccc(Cl)cc1)CCC(O)C2` (stereo unspecified): the outcome in experiment [2] was Active. The Activity in experiment [4] was 52%; in [5] it was -3%; in [6], -13%; in experiment [9] it was -2%.

For the compound `Nc1sc2c(c1C(=O)c1ccc(Cl)cc1)CCC(Cc1ccccc1)C2` (stereo unspecified), the result in experiment [13] and in [2] was Active. In addition, the Activity in experiment [4] was 16%; in [5], -11%; in experiment [6] it was -6%; in experiment [9], -1%.

Take `Nc1sc2ccccc2c1C(=O)c1ccc(Cl)cc1`: the Activity in experiment [4] was -29%; in [5], -8%; in [6], -5%; in experiment [9] it was -6%. Further, the result in experiment [12] was Active.

`Nc1sc2c(c1C(=O)c1ccc(Cl)cc1)CCCC2`: the outcome in [2] was Active. Besides, the Activity was -55% in experiment [4], -8% in experiment [5], -23% in experiment [6] and -26% in experiment [9].

Values taken from ChEMBL document CHEMBL3046659, “Synthesis and Biological Evaluation of Allosteric A1-Adenosine Receptor Modulators Structurally Related to (2-Amino-4,5,6,7-Tetrahydro-Benzo[B]Thiophen-3-YL)-(4-Chloro-Phenyl)-Methanone, a Potent Compound Useful to Reduce Neuropathic Pain” (Med Chem Res, 2005).
